Experimental data from patent US20250332143A1, “COMPOSITION COMPRISING ALOX5 INHIBITOR FOR PREVENTING OR TREATING SARCOPENIA” (PLUTO Inc., priority 2022, published 2025).

Experiments:
[1] = tested on: Atrogin-1 and MuRF-1; test: qPCR of muscle atrophy regulators in Dex-treated C2C12 myotubes; format: cell-based, mouse
Procedure: (§1) C2C12 murine skeletal muscle myoblasts were obtained from Koram Biotech (Republic of Korea). The cells were maintained in DMEM growth medium supplemented with 10% FBS, 1% penicillin, and streptomycin. When myoblasts proliferated to approximately 90%, they were differentiated into muscle fibers by treating them with DMEM differentiation medium supplemented with 2% HS, 1% penicillin, and streptomycin for 96 hours. Differentiated muscle fibers were treated with 10 μM Dex for 24 hours to induce sarcopenia. To evaluate the degree of differentiation of muscle cells, differentiating myoblasts were treated with the corresponding compound in differentiation medium for 24 or 48 hours.
For quantitative real-time PCR, transcript levels of genes of interest were analyzed using the StepOnePlus real-time PCR system (Applied Biosystems, UK). Total RNA was reverse transcribed to prepare cDNA using AccuPower® RT PreMix (Bioneer Corporation). The obtained cDNA was subjected to real-time PCR according to the manufacturer's instructions with the following changes. PCR was performed in triplicate in a total volume of 20 μL 2× Power SYBR Green PCR Master Mix (Enzynomics, Republic of Korea) containing 200 nM (final concentration) of each specific primer and 1 μL of cDNA synthesized from 1 μg of total RNA. PCR amplification consisted of incubating the mixture at 95° C. for 10 minutes, followed by 40 cycles of denaturation, annealing, and extension. Denaturation was performed at 95° C. for 15 s, annealing was performed at 60° C. for 1 min, and extension was performed at 72° C. for 20 s with fluorescence detection at 72° C. after each cycle. After the final cycle, melting point analysis of all samples was performed within the range of 60 to 95° C. using continuous fluorescence detection. Specific cDNA samples were included in each run and used as reference material for comparison between runs. The expression level of GAPDH was used to calculate and normalize the expression levels of all other genes. Results were expressed as relative expression levels for each gene. The synthesized cDNA was amplified by quantitative real-time PCR (qRT-PCR) or standard PCR.

[2] = tested on: Dex-treated C2C12 myotubes; test: Dex-induced myotube atrophy, myosin heavy chain immunostaining, myotube diameter; format: cell-based, mouse; conditions: 10 μM Dex 24 h; for diameter of muscle fibers (C2C12 myotubes): zileuton 10 µM, wedelolactone 20 μM (FIGS. 2, 3)
Procedure: as §1
Muscle fibers were stained using immunochemical staining using myosin heavy chain antibody. Specifically, the muscle fibers were rinsed three times with PBS and then fixed with a 3.7% formaldehyde solution. After rinsing with PBS, a transparency process was performed with 0.2% TritonX-100 solution, and additional rinsing was performed with PBS. They were blocked with 1% bovine serum albumin solution (1% BSA in PBS-T) and incubated with primary antibody overnight at 4° C. After washing with PBS, the secondary antibody was treated for 1 hour. Afterwards, the myotubes were counterstained with 1 μM DAPI in PBS. Fluorescence images of stained myotubes in five different areas were obtained using a DMI 3000 B microscope (Leica, Germany) and analyzed using ImageJ 1.52 software (National Institutes of Health, Bethesda, MD, USA). Myotubes were classified as myosin heavy chain positive cells containing four or more nuclei, and the diameter of muscle fibers containing four or more nuclei was measured.

Compound | Atrogin-1 expression (mRNA, qPCR) [1] | myotube atrophy in Dex-treated myotubes ([2]; C2C12 myotubes) | MuRF-1 expression (mRNA, qPCR) [1] | diameter of muscle fibers (C2C12 myotubes) [2]
CCCCC/C=C\C[C@@H](O)/C=C/C=C/C=C\[C@@H](O)CCCC(=O)O [LTB4, Leukotriene B4] | did not affect | did not affect |  | 
COc1cc(O)c2c(c1)oc(=O)c1c3cc(O)c(O)cc3oc21 [wedelolactone, Wedelolactone] | decreased |  | decreased | recovered
CC(c1cc2ccccc2s1)N(O)C(N)=O (centres unmarked) [zileuton, Zileuton] | decreased |  | decreased | recovered
